Molecular target: T1, JuvD-RhFRED (Micromonospora chalcea, UniProt A0A1Z1MZ59)
T1 sequence (A0A1Z1MZ59 1-402): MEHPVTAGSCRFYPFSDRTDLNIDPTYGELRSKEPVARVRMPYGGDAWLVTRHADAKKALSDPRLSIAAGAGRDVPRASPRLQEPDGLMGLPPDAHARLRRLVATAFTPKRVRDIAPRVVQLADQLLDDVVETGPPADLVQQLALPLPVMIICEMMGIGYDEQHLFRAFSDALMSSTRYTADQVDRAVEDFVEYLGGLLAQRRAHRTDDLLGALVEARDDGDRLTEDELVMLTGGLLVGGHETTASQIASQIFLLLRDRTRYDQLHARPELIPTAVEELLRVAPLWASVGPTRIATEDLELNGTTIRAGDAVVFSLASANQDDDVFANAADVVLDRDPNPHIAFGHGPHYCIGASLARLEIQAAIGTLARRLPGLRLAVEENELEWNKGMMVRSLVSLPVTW
Assay: in vitro P450 oxidation
Type: biochemical
Settings: C12-C13 epoxidation; enzyme preparation not given

## CC[C@H]1OC(=O)C[C@@H](O)[C@H](C)[C@@H](O[C@@H]2O[C@H](C)C[C@H](N(C)C)[C@H]2O)[C@@H](CC=O)C[C@@H](C)C(=O)/C=C/C(C)=C/[C@@H]1C [compound 5, M-4365 G2]
  in vitro P450 oxidation: this enzyme effectively converted each substrate to a single product
